Literature values in US20030087306A1, “Methods for identifying novel multimeric agents that modulate receptors” (priority 1998, published 2003).
Counter-ions that a name gives are not always drawn. Like-named read-outs stand apart in the source and are kept apart here. Blank lines part the entries; values can stand above or below the compound they belong to.

Columns and labels:
[1] = target: T1, AT2 receptor (Homo sapiens, UniProt P50052)
T1 sequence (P50052 1-363): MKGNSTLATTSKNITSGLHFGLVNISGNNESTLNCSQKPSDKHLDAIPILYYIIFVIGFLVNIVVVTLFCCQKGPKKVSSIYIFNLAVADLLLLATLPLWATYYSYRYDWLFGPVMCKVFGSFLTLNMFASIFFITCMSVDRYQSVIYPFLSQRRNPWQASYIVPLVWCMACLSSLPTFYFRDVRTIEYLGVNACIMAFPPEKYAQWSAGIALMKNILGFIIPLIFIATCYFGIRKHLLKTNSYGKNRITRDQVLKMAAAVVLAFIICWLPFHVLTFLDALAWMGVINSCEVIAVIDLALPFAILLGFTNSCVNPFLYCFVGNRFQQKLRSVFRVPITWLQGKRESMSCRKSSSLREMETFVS

[2] = test system: angiotensin II receptor sites; conditions: rat adrenal cortical membranes and cultured rat smooth muscle cells
[3] = target: 5-HT1D binding site
[4] = test system: 5-HT1D receptor; conditions: for potency (pD2 range): rabbit saphenous vein rings
[5] = test system: human coronary artery; conditions: for effectiveness in causing contraction of human isolated coronary artery: endothelium-denuded segments, in vitro
[6] = test system: 5-HT1-like receptor
[7] = target: β2-adrenergic receptor (Homo sapiens, UniProt P07550); conditions: for duration of action / onset of action (in words): human, in vivo
Chain of β2-adrenergic receptor (P07550 whole entry): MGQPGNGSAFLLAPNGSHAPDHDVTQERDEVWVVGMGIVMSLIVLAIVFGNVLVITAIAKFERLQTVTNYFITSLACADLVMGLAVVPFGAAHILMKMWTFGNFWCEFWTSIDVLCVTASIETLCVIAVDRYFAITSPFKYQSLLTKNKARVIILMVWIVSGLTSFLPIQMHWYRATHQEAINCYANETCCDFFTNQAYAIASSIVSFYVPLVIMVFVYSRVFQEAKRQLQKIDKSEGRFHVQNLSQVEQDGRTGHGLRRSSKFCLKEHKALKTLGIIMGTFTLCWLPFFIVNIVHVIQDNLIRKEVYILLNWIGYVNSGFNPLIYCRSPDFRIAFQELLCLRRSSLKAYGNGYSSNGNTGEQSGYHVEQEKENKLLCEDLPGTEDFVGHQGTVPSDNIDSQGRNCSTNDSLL

[8] = target: T2, AT1 receptor (Homo sapiens, UniProt P30556)
T2 sequence (P30556 1-359): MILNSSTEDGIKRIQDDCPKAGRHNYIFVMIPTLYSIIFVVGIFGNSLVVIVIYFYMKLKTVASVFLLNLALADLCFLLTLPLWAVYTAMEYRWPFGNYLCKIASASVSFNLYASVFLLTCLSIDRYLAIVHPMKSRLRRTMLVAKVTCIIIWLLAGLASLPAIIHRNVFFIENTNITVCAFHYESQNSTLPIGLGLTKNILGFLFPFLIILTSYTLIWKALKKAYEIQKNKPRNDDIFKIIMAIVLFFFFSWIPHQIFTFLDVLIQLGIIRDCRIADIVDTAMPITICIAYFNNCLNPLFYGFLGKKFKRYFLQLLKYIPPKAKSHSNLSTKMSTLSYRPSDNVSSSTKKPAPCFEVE

[9] = test system: cholinergic receptors on bronchial smooth muscle
[10] = target: T3, 5-HT1 receptor (Cricetulus griseus, UniProt P46636); conditions: luciferase expression, CHO cells
T3 construct: These CHO cells are screened for endogenous G protein-coupled receptors; endogenous in cells; host or cells: CHO cells with a cAMP-responsive luciferase reporter
T3 sequence (P46636 whole entry): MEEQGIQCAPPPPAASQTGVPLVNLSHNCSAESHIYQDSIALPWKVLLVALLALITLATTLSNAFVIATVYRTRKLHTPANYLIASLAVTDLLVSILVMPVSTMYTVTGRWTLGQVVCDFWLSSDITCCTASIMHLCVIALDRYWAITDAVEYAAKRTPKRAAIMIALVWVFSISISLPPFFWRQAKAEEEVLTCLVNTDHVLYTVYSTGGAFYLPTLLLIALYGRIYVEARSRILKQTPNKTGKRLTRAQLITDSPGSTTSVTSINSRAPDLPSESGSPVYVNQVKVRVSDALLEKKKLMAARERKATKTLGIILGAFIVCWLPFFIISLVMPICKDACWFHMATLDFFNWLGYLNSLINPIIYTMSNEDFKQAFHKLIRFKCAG

[11] = target: T4, 5-HT1F receptors (Homo sapiens, UniProt P30939)
T4 construct: expressed in transfected cells; host or cells: NIH-3T3 cells
T4 sequence (P30939 1-366): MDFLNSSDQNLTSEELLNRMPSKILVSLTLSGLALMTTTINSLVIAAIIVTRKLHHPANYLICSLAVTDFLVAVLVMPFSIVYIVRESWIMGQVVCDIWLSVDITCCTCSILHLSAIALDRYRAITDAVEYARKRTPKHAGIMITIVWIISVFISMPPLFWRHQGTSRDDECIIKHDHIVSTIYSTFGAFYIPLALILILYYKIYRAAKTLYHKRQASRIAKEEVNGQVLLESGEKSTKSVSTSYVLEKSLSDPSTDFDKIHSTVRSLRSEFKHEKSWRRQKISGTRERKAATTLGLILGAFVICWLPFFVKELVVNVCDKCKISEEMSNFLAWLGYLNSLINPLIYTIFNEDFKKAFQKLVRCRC

[12] = target: 5-HT1B binding site (Rattus norvegicus, UniProt P28564)
Chain of 5-HT1B binding site (P28564 whole entry): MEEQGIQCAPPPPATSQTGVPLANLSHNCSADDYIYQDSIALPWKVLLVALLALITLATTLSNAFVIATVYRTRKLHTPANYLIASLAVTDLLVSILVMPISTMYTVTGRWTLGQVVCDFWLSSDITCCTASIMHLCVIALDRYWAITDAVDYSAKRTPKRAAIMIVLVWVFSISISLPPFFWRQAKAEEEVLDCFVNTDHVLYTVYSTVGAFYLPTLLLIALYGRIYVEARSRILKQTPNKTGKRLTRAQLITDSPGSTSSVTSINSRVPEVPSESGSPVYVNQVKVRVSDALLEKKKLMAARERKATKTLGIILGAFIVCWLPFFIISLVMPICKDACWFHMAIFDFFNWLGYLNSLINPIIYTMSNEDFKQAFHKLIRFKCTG

[13] = target: T5, 5-HT1A binding site (Homo sapiens, UniProt P08908)
T5 sequence (P08908 1-422): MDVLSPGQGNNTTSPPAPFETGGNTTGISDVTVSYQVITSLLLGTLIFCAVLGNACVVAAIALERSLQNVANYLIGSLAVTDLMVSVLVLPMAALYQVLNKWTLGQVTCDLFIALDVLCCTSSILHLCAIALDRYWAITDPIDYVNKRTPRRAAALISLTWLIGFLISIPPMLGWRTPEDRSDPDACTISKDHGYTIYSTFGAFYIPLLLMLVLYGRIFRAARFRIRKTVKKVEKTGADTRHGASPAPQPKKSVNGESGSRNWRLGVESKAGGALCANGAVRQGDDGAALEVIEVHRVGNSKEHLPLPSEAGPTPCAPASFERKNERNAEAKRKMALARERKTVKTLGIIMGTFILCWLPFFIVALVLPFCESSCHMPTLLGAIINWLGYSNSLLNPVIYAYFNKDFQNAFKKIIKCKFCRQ

[14] = target: T6, 5-HT1C binding site (Homo sapiens, UniProt P28335)
T6 sequence (P28335 33-458): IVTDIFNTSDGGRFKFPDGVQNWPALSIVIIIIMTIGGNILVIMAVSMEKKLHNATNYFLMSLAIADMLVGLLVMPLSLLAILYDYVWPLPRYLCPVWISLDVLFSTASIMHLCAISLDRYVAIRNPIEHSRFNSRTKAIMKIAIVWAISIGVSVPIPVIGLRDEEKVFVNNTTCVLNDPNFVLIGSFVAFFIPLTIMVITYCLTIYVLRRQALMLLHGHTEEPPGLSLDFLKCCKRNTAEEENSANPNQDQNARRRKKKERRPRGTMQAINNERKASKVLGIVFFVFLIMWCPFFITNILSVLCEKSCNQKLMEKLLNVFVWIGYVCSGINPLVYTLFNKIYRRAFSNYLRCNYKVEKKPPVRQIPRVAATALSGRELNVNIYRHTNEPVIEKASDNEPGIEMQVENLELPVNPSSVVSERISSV

[15] = target: 5-HT2 binding site (Homo sapiens, UniProt P28223)
Chain of 5-HT2 binding site (P28223 whole entry): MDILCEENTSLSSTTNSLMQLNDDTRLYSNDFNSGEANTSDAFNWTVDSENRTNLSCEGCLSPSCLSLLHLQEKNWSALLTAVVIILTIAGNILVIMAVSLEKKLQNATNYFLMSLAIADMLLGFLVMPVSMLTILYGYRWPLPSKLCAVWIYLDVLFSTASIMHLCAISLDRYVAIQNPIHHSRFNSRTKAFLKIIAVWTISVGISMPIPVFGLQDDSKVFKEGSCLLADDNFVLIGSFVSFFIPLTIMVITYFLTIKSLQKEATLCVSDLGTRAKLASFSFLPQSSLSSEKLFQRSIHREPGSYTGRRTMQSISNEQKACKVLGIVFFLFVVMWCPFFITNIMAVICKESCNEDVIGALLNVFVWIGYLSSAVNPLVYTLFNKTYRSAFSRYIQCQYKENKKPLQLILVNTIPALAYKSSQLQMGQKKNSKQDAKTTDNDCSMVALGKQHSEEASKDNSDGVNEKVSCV

[16] = target: 5-HT1E binding site (Homo sapiens, UniProt P28566)
Chain of 5-HT1E binding site (P28566 whole entry): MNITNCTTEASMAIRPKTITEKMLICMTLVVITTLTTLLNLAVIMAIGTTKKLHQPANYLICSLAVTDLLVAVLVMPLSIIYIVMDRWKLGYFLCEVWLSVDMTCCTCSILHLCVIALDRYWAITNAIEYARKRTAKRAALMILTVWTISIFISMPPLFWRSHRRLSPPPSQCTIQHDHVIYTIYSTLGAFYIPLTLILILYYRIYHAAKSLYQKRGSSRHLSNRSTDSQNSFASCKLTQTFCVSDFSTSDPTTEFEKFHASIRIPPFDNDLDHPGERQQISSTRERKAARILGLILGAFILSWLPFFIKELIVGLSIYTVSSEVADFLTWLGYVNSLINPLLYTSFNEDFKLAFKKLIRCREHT

[17] = target: T7, 5-HT1D receptor; conditions: forskolin-stimulated adenylyl cyclase, guinea-pig substantia nigra
T7 construct: rows headed: efficacy compared to 5-HT; other: forskolin-stimulated adenylyl cyclase, guinea-pig substantia nigra

[18] = target: 5-HT1D receptor; conditions: K+-evoked [3H]-5-HT release, guinea-pig frontal cortex slices
[19] = test system: neuropeptide release; conditions: trigeminal ganglion stimulation in cats

affinity [1]: low affinity
inhibition of specific binding of 125I-angiotensin II [2]: inhibits the specific binding
Compound: CCCCc1nc(Cl)c(CO)n1Cc1ccc(-c2ccccc2-c2nn[nH]n2)cc1 [losartan]

affinity (pIC50) [3]: 8.22
efficacy, maximal contractile response (Emax) ([4]; compared to 5-HT and 5-CT): significantly greater
Compound: CNS(=O)(=O)Cc1ccc2[nH]cc(CCN(C)C)c2c1 [sumatriptan]
effectiveness in causing contraction of human isolated coronary artery [5]: significantly less efficacious than 5-HT

Compound: c1ccc2c(c1)CC[C@H](CNCCCNC1=NCCCN1)O2 [alniditan, (−)—(R)-N-[3,4-dihydro-2H-1-benzopyran-2-ylmethyl-N′-(1,4,5,6-tetrahydro-2-pyrimidinyl)-1,3-propanediaminedihydrochloride]
potency compared with sumatriptan ([6]; anesthetized dogs): higher
common carotid arterial blood flow ([6]; anesthetized dogs, 0.63-80 μg/kg i.v.): reduces common carotid arterial blood flow
effect on other cardiovascular variables ([6]; coronary, mesenteric and renal arterial blood flow, vascular and airway resistance): comparatively little effect

duration of action [7]: about 5 hours
onset of action (in words) [7]: rapid onset of action
Compound: CCC(NC(C)C)C(O)c1ccc(O)c2[nH]c(=O)ccc12 (centres unmarked) [Procaterol]

Compound: Cc1cc(Cn2cnc3c2CC(C(=O)O)N(C(=O)C(c2ccccc2)c2ccccc2)C3)ccc1N (centres unmarked) [PD 123177]
affinity ([8]; AT1 receptor): low affinity

selectivity for the AT subtypes ([8]; AT1 vs AT2): no selectivity
Compound: angiotensin II

Compound: CC(C)[N+]1(C)[C@@H]2CC[C@H]1C[C@@H](OC(=O)C(CO)c1ccccc1)C2 (some centres unmarked) [Ipratropium]
persistence of significant effects ([9]; after inhalation): more than 4 hours
time over which maximal responses develop ([9]; after inhalation): 30 to 90 min
duration of useful response ([9]; some asthmatic patients): up to 6 hours

Compound: CC(Cc1ccc(O)cc1)NCC(O)c1cc(O)cc(O)c1 (centres unmarked) [Fenoterol]
duration of action [7]: 2 to 3 h
onset of action (in words) [7]: rapid onset

Compound: CC(C)NCC(O)COc1cccc2[nH]ccc12 (centres unmarked) [pindolol]
reversal of the response to 5-HT [10]: reversed

duration of effect after inhalation [7]: 3 to 6 h
Compound: Cc1ccc(C(=O)Oc2ccc(C(O)CNC(C)(C)C)cc2OC(=O)c2ccc(C)cc2)cc1 (centres unmarked) [bitolterol]

reversal of the response to 5-HT [10]: not
Compound: O=C(c1ccc(F)cc1)C1CCN(CCn2c(=O)[nH]c3ccccc3c2=O)CC1 [ketanserin]

receptor reserve ([11]; 5-HT-induced inhibition of FSCA): 90%
receptor occupancy required for half-maximal response ([11]; NIH-3T3 cells): about 10%
potency (pD2 range) [4]: 6.2-7.1
Compound: NCCc1c[nH]c2ccc(O)cc12 [Example 5-HT]

Compound: CC(C)(C)NCC(O)COc1cccc2[nH]c(C#N)cc12 (centres unmarked) [cyanopindolol]
reversal of the response to 5-HT [10]: reversed

Compound: NCCc1c[nH]c2ccc(C(N)=O)cc12 [Example 5-CT, 5-carboxamidotryptamine]
potency (pD2 range) [4]: 7.2-7.6

Compound: CN(C)CCc1c[nH]c2ccc(Cn3cncn3)cc12 [rizatriptan]
maximum contractile response ([5]; compared with sumatriptan): lower maximum contractile response
effectiveness in causing contraction of human isolated coronary artery [5]: less effective than sumatriptan
effectiveness in causing contraction of human isolated coronary artery ([5]; listed as MK462): significantly less efficacious than 5-HT
effectiveness in causing contraction of human isolated coronary artery ([5]; listed as MK-462): significantly less effective than sumatriptan

onset of action (in words) [7]: within minutes
duration of effect after inhalation [7]: several hours
duration of effects after oral administration ([7]; oral): 3 to 4 h
Compound: CC(C)NCC(O)c1cc(O)cc(O)c1 (centres unmarked) [Metaproterenol]

Compound: CS(=O)(=O)Nc1ccc(Cc2noc(-c3ccc4[nH]cc(CCN)c4c3)n2)cc1 [L-694,247]
affinity (pIC50) [3]: 10.03
affinity (pIC50) [12]: 9.08
pIC50 [13]: 8.64
pIC50 [14]: 6.42
pIC50 [15]: 6.50
pIC50 [16]: 5.66
pEC50 [17]: 9.1
pEC50 [18]: 9.4

Compound: CN(C)CCc1c[nH]c2ccc(C[C@H]3COC(=O)N3)cc12 [Zolmitriptan]
neuropeptide release [19]: reduces neuropeptide release
